Laboratory results reported in ChEMBL document CHEMBL3885861, “Open TG-GATES”.

Species on record: Rattus norvegicus
Assay: Open TG-GATES - Regimen: Daily Repeat
Assay type: toxicity, organism-based, Sprague-Dawley
Set-up: regimen Daily Repeat, gender Male, age 6 weeks
Conditions: in vivo, po, 30 mg/kg, route gavage, dose level High; for APTT / Bas / Eos / Fbg / Hb / Ht / Lym / MCH / MCHC / MCV / Mono / Neu / PT / Plat / RBC / Ret / WBC: tissue Blood; for KIDNEY_L / KIDNEY_R / KIDNEY_TOTAL: tissue Kidney; for LIVER: tissue Liver; for A/G / ALP / ALT / AST / BUN / CRE / Ca / Cl / DBIL / GLC / IP / K / LDH / Na / PL / RALB / TBIL / TC / TG / TP / gamma-GTP: tissue Plasma

SMILES: CN(C)CCC(c1ccc(Cl)cc1)c1ccccn1 (configuration not stated) [CHLORPHENIRAMINE]
- TERMINAL_BW (72 h, time 3 day): 205.8 g
- APTT (72 h, time 3 day): 18.2 s
- Bas (72 h, time 3 day): 0.4%
- Eos (72 h, time 3 day): 1%
- Fbg (72 h, time 3 day): 272.2 mg/dL
- Hb (72 h, time 3 day): 14.3 g/dL
- Ht (72 h, time 3 day): 43.8%
- Lym (72 h, time 3 day): 78.6%
- MCH (72 h, time 3 day): 20.4 pg
- MCHC (72 h, time 3 day): 32.5%
- MCV (72 h, time 3 day): 62.5 fL
- Mono (72 h, time 3 day): 3.2%
- Neu (72 h, time 3 day): 15.8%
- PT (72 h, time 3 day): 15.3 s
- Plat (72 h, time 3 day): 124 x10_4/uL
- RBC (72 h, time 3 day): 701 x10_4/ul
- Ret (72 h, time 3 day): 3.4%
- WBC (72 h, time 3 day): 91.9 x10_2/uL
- KIDNEY_L (72 h, time 3 day): 1 g
- KIDNEY_R (72 h, time 3 day): 0.9 g
- KIDNEY_TOTAL (72 h, time 3 day): 1.9 g
- LIVER (72 h, time 3 day): 8.8 g
- A/G (72 h, time 3 day): 0.9
- ALP (72 h, time 3 day): 1539.6 IU/L
- ALT (72 h, time 3 day): 38 IU/L
- AST (72 h, time 3 day): 67.2 IU/L
- BUN (72 h, time 3 day): 14.8 mg/dL
- CRE (72 h, time 3 day): 0.2 mg/dL
- Ca (72 h, time 3 day): 10.3 mg/dL
- Cl (72 h, time 3 day): 108.8 meq/L
- DBIL (72 h, time 3 day): 0.012 mg/dL
- GLC (72 h, time 3 day): 182.6 mg/dL
- IP (72 h, time 3 day): 7.5 mg/dL
- K (72 h, time 3 day): 4.5 meq/L
- LDH (72 h, time 3 day): 95.6 IU/L
- Na (72 h, time 3 day): 142.2 meq/L
- PL (72 h, time 3 day): 133 mg/dL
- RALB (72 h, time 3 day): 2.6 g/dL
- TBIL (72 h, time 3 day): 0.038 mg/dL
- TC (72 h, time 3 day): 74.6 mg/dL
- TG (72 h, time 3 day): 62.6 mg/dL
- TP (72 h, time 3 day): 5.5 g/dL
- gamma-GTP (72 h, time 3 day): 1.2 IU/L
- TERMINAL_BW ([…], time 7 day): 242.7 g
- TERMINAL_BW ([…], time 14 day): 294.5 g
- TERMINAL_BW ([…], time 28 day): 368.6 g
- APTT ([…], time 7 day): 19.1 s
- Bas ([…], time 7 day): 0.4%
- Eos ([…], time 7 day): 1%
- Fbg ([…], time 7 day): 302.6 mg/dL
- Hb ([…], time 7 day): 13.6 g/dL
- Ht ([…], time 7 day): 40.9%
- Lym ([…], time 7 day): 74%
- MCH ([…], time 7 day): 20.5 pg
- MCHC ([…], time 7 day): 33.3%
- MCV ([…], time 7 day): 61.4 fL
- Mono ([…], time 7 day): 3.2%
- Neu ([…], time 7 day): 21.2%
- PT ([…], time 7 day): 13.9 s
- Plat ([…], time 7 day): 119 x10_4/uL
- RBC ([…], time 7 day): 665.2 x10_4/ul
- Ret ([…], time 7 day): 3.6%
- WBC ([…], time 7 day): 121.3 x10_2/uL
- APTT ([…], time 14 day): 17.1 s
- Bas ([…], time 14 day): 0.2%
- Eos ([…], time 14 day): 0.8%
- Fbg ([…], time 14 day): 282 mg/dL
- Hb ([…], time 14 day): 14.1 g/dL
- Ht ([…], time 14 day): 42.4%
- Lym ([…], time 14 day): 79.2%
- MCH ([…], time 14 day): 19.9 pg
- MCHC ([…], time 14 day): 33.4%
- MCV ([…], time 14 day): 59.7 fL
- Mono ([…], time 14 day): 2.6%
- Neu ([…], time 14 day): 16.4%
- PT ([…], time 14 day): 14.3 s
- Plat ([…], time 14 day): 113.7 x10_4/uL
- RBC ([…], time 14 day): 709 x10_4/ul
- Ret ([…], time 14 day): 4.6%
- WBC ([…], time 14 day): 93.8 x10_2/uL
- APTT ([…], time 28 day): 20.7 s
- Bas ([…], time 28 day): 0%
- Eos ([…], time 28 day): 0.8%
- Fbg ([…], time 28 day): 290.6 mg/dL
- Hb ([…], time 28 day): 15.8 g/dL
- Ht ([…], time 28 day): 46.8%
- Lym ([…], time 28 day): 80.6%
- MCH ([…], time 28 day): 19 pg
- MCHC ([…], time 28 day): 33.8%
- MCV ([…], time 28 day): 56.2 fL
- Mono ([…], time 28 day): 2.6%
- Neu ([…], time 28 day): 14.8%
- PT ([…], time 28 day): 15.1 s
- Plat ([…], time 28 day): 110.6 x10_4/uL
- RBC ([…], time 28 day): 834 x10_4/ul
- Ret ([…], time 28 day): 2.2%
- WBC ([…], time 28 day): 98.8 x10_2/uL
- KIDNEY_L ([…], time 7 day): 1 g
- KIDNEY_R ([…], time 7 day): 1 g
- KIDNEY_TOTAL ([…], time 7 day): 2 g
- KIDNEY_L ([…], time 14 day): 1.1 g
- KIDNEY_R ([…], time 14 day): 1.1 g
- KIDNEY_TOTAL ([…], time 14 day): 2.3 g
- KIDNEY_L ([…], time 28 day): 1.5 g
- KIDNEY_R ([…], time 28 day): 1.4 g
- KIDNEY_TOTAL ([…], time 28 day): 2.9 g
- LIVER ([…], time 7 day): 10.9 g
- LIVER ([…], time 14 day): 12.6 g
- LIVER ([…], time 28 day): 15.6 g
- A/G ([…], time 7 day): 0.8
- ALP ([…], time 7 day): 1512.4 IU/L
- ALT ([…], time 7 day): 40.6 IU/L
- AST ([…], time 7 day): 65 IU/L
- BUN ([…], time 7 day): 16 mg/dL
- CRE ([…], time 7 day): 0.2 mg/dL
- Ca ([…], time 7 day): 11.3 mg/dL
- Cl ([…], time 7 day): 106.2 meq/L
- DBIL ([…], time 7 day): 0.012 mg/dL
- GLC ([…], time 7 day): 185.6 mg/dL
- IP ([…], time 7 day): 7.6 mg/dL
- K ([…], time 7 day): 4.4 meq/L
- LDH ([…], time 7 day): 112.2 IU/L
- Na ([…], time 7 day): 141.6 meq/L
- PL ([…], time 7 day): 163.6 mg/dL
- RALB ([…], time 7 day): 2.6 g/dL
- TBIL ([…], time 7 day): 0.028 mg/dL
- TC ([…], time 7 day): 86.4 mg/dL
- TG ([…], time 7 day): 117 mg/dL
- TP ([…], time 7 day): 5.8 g/dL
- gamma-GTP ([…], time 7 day): 1 IU/L
- A/G ([…], time 14 day): 0.8
- ALP ([…], time 14 day): 1415.4 IU/L
- ALT ([…], time 14 day): 32.8 IU/L
- AST ([…], time 14 day): 57.8 IU/L
- BUN ([…], time 14 day): 15.4 mg/dL
- CRE ([…], time 14 day): 0.2 mg/dL
- Ca ([…], time 14 day): 11.1 mg/dL
- Cl ([…], time 14 day): 105.8 meq/L
- DBIL ([…], time 14 day): 0.012 mg/dL
- GLC ([…], time 14 day): 190.6 mg/dL
- IP ([…], time 14 day): 7.6 mg/dL
- K ([…], time 14 day): 4.6 meq/L
- LDH ([…], time 14 day): 122.4 IU/L
- Na ([…], time 14 day): 141.8 meq/L
- PL ([…], time 14 day): 155.8 mg/dL
- RALB ([…], time 14 day): 2.8 g/dL
- TBIL ([…], time 14 day): 0.03 mg/dL
- TC ([…], time 14 day): 82.4 mg/dL
- TG ([…], time 14 day): 121 mg/dL
- TP ([…], time 14 day): 6 g/dL
- gamma-GTP ([…], time 14 day): 1 IU/L
- A/G ([…], time 28 day): 0.8
- ALP ([…], time 28 day): 1092.6 IU/L
- ALT ([…], time 28 day): 34 IU/L
- AST ([…], time 28 day): 54.6 IU/L
- BUN ([…], time 28 day): 16 mg/dL
- CRE ([…], time 28 day): 0.2 mg/dL
- Ca ([…], time 28 day): 10.7 mg/dL
- Cl ([…], time 28 day): 105.6 meq/L
- DBIL ([…], time 28 day): 0.014 mg/dL
- GLC ([…], time 28 day): 184 mg/dL
- IP ([…], time 28 day): 7.1 mg/dL
- K ([…], time 28 day): 4.4 meq/L
- LDH ([…], time 28 day): 92.8 IU/L
- Na ([…], time 28 day): 144.2 meq/L
- PL ([…], time 28 day): 150.2 mg/dL
- RALB ([…], time 28 day): 2.8 g/dL
- TBIL ([…], time 28 day): 0.03 mg/dL
- TC ([…], time 28 day): 75.2 mg/dL
- TG ([…], time 28 day): 148 mg/dL
- TP ([…], time 28 day): 6.2 g/dL
- gamma-GTP ([…], time 28 day): 1.2 IU/L
